The record followed here is patent US12220400B2, “Amino acid compositions and methods for treating cystic fibrosis” (UNIVERSITY OF FLORIDA RESEARCH FOUNDATION, INCORPORATED, priority 2018, dated 2025).

The test system of the assay is HBEC-F508del. Nature of the assay: Transepithelial short-circuit anion current in HBEC-F508del, Example 3. In kind it is cell-based, human. On the procedure: Methods: Transepithelial short-circuit current and ^36Cl net flux (Jnet) were measured in differentiated HBEC-F508del bathed in vehicle (no AA), AA test formulation (CF5AA-3) or AA negative control (NC; CF4AA-3) in Ussing chambers. Cells were treated with C18 (VX809-analogue), VX661 or DMSO for 24 hours. After blocking ENaC with benzamil, chloride secretion was stimulated using GLPG1837 (VX770-analogue) with or without forskolin. CFTRinh-172, CaCCinh-A01 or bumetanide were added to distinguish CFTR-, TMEM16A- and NKCC1-sensitive chloride currents, respectively. Western blot was performed on HBEC-F508del membrane fractions to determine apical CFTR expression.

On to `CC(C)(CO)c1cc2cc(NC(=O)C3(c4ccc5c(c4)OC(F)(F)O5)CC3)c(F)cc2n1C[C@@H](O)CO` [VX661, tezacaftor], for which the basal anion current (corrector pretreatment 24 hours, cells bathed in vehicle (no AA)) was found to be 1.5±0.2 μA. Further, for the setting “forskolin and GLPG1837”, the “peak anion current after stimulation with forskolin and GLPG1837” value was 7.9±0.7 μA.
